In US20090023589A1, “METHODS FOR IDENTIFYING CONDITIONS AFFECTING A CELL STATE” (priority 2004, published 2009):

System: HL-60 cells
Assay: Surface marker expression profile of HL-60 cells after combinatorial differentiation (flow cytometry, percent positive cells, hierarchical clustering)
Format: cell-based
Conditions: for expression of cell surface marker CD 125w: med concentrations, sodium butyrate at pH 7.8; for monocyte signature profile (CD 14hi, CD11b/Mac-1hi, CD 13+, CD66b-): binary and ternary combinations, clustering on myeloid markers
Method: HL-60 cells were used to study what factors are involved in cellular differentiation. At day 0, the cells were plated in wells using a 96 well plate at a seeding density of approximately 60,000 cells, appropriate cell media was added. […] Cells were induced with the factors in Table 1 and 2. At day 4, the cells were harvested and labeled with antibody (see Table 3) for cytometry. The labeling was accomplished by washing the cells with PBS (phosphate buffered saline). Then gamma globulin was used to block non-specific binding sites. The gamma globulin treatment lasted for approximately 20 minutes at room temperatures on a rocker shaker.
The antibody cocktail concentration for each antibody used was based on manufacturer's instruction adjusted for final cell number. The antibody cocktail was incubated for 30 minutes at room temperature on rocking shaker. Following the incubation, the cells were washed using PBS. The cells were resuspended in 1% ultrapure methanol free formaldehyde and refrigerated until analysis. The cells were analyzed using a BD FACSCalibur equipped with a high throughput sampler (HTS) which has a dual laser excitation line: argon (488 nm) and red diode (635 nm).
The positive control for these experiments was 100 nm vitamin D3 plus CD 14 antibody. The negative controls were (1) untreated cells plus antibody cocktails located on the plates; and (2) fresh untreated cells plus antibody cocktails located on separate plates.
HL-60 cells were exposed to five well studied chemical differentiation factors (dimethylsulfoxide (DMSO), Vitamin D3, Phorbol-12-myristate-13-acetate (PMA), Sodium butyrate+pH 7.8, and all-Trans Retinoic Acid (ATRA)) known to promote differentiation along three distinct pathways (neutrophil, monocyte, eosinophil/basophil) within the myeloid lineage. Differentiation was induced by creating binary and ternary five factor combinations using the five factors at three concentrations for the binary experiment and two concentrations for the ternary experiment.
To observe experiment-wide profiles of marker expression, we used the percentage of positive cells for all markers and constructed a profile for each combinatorial treatment. Hierarchical clustering orders the data so that the most similar profile are next to each other in the plot.
To refine cluster analysis with relevant information, one can choose specific cell surface markers. In order to test the validity of the experiment, we clustered based on cell surface markers known to be expressed in the myeloid lineage: CD66b, CD11b/Mac-1, CD13+CD 14 (FIG. 8 a,b). Cells which have differentiated toward the monocytic lineage have a CD 14^hi, CD11b/Mac-1^hi, CD 13^+, CD66b^− expression profile.

| Compound | expression of cell surface marker CD 125w | monocyte signature profile (CD 14hi, CD11b/Mac-1hi, CD 13+, CD66b-) |
| --- | --- | --- |
| C[S+](C)[O-] [DMSO, dimethylsulfoxide] | neither DMSO^med nor sodium butyrate^med, pH 7.8 alone produced cells positive for CD 125w |  |
| CCCCCCCCCCCCCC(=O)O[C@@H]1[C@@H](C)[C@@]2(O)[C@@H](C=C(CO)C[C@]3(O)C(=O)C(C)=C[C@@H]23)[C@@H]2C(C)(C)[C@]12OC(C)=O [PMA, Phorbol-12-myristate-13-acetate] |  | contributed to the monocyte signature profile |
| C=C1CC[C@H](O)C/C1=C/C=C1\CCC[C@]2(C)[C@@H]([C@H](C)CCCC(C)C)CC[C@@H]12 [Vitamin D3] |  | contributed to the monocyte signature profile |
| CCCC(=O)[O-].[Na+] [sodium butyrate, Sodium butyrate] | neither DMSO^med nor sodium butyrate^med, pH 7.8 alone produced cells positive for CD 125w |  |
